We go through 1 compound from PMC11191095, “QSAR Reveals Decreased Lipophilicity of Polar Residues Determines the Selectivity of Antimicrobial Peptide Activity” (ACS Omega, 2024).

Where a SMILES comes first, the peptide text is derived from it.

This series has as its system human erythrocytes. Nature of the series: In vitro hemolytic activity. Type of series: cell-based. To be noted: 1 h. The method in brief:
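Serial peptide dilutions in PBS mixed 1:1 with fresh erythrocytes, 1 h at 37 °C; supernatant OD550 measured after centrifugation. Hemolysis normalized to 0.1% Triton X-100 (full lysis) and PBS (none); HC10 and HC50 taken from dose–response curves.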

The mark [1] stands for this setting: human erythrocytes in PBS, 37 °C, OD550, from dose response curves.

Take `CC(C)[C@H](NC(=O)CNC(=O)[C@H](CCCNC(=N)N)NC(=O)[C@H](CCCNC(=N)N)NC(=O)[C@H](CS)NC(=O)[C@@H](NC(=O)[C@H](CS)NC(=O)[C@@H](N)CCCNC(=N)N)C(C)C)C(=O)N[C@@H](CS)C(=O)N[C@@H](CCCNC(=N)N)C(=O)N[C@@H](CS)C(=O)N[C@H](C(=O)N[C@@H](CS)C(=O)N[C@@H](CCCNC(=N)N)C(=O)N[C@@H](CCCNC(=N)N)C(N)=O)C(C)C` [BTD15a] (H-RCVCRRGVCRCVCRR-NH2; N-terminus assumed): under setting [1], the “HC10 (concentration causing 10% hemolysis)” value is reported as 9 µg/mL and the “HC50 (concentration causing 50% hemolysis)” value came to 33 µg/mL. Besides, the “% hemolysis” value (red cells of human, 256 μg/mL) is 100%.
